Measured values: patent publication US20230151075A1, “PARATHYROID HORMONE ATTENUATES LOW BACK PAIN AND OSTEOARTHRITIC PAIN” (The Johns Hopkins University, priority 2019, published 2023)

How the values were obtained:
[1] = tested on: primary DRG neurons; assay: Sodium indication (ANG-2 AM) in primary DRG neurons; assay type: cell-based, mice
Description: DRG neuron culture was processed as described previously. Saijilafu and Zhou, 2012. Briefly, the dishes or coverslips for DRG neuron culture were coated with 50 μL working solution containing 100 μg/mL Poly-D-Lysine and 10 µg/mL Laminin at 37° C. To prepare the neuron culture medium, alpha minimum essential medium (α-MEM) was supplemented with 1× penicillin-streptomycin solution (500 units of penicillin and 500 μg of streptomycin, Gibco Laboratories, Gaithersburg, Md.), 5% fetal bovine serum (Gibco), 1× GlutaMAX-1 supplement (35050-061, Thermo Fisher Scientific), and the antimitotic reagents containing 20 μM 5-fluoro-2-deoxyuridine (F0503, Sigma-Aldrich) and 20 μM uridine (U3003, Sigma-Aldrich). For the serum-free medium, the fetal bovine serum was replaced with the supplement B27. After euthanizing the 6- to 8-week-old mice, the lumbar DRGs were harvested and stored in microfuge tubes with α-MEM medium placed on ice. DRG neurons were digested and dissociated with 1 mg/mL collagenase A solution (10103578001, Roche, Basel, Switzerland) in a 37° C. incubator for 90 min followed by 1× TrypLE Express solution (15140-122, Thermo Fisher) at 37° C. for 20 min. Then, TrypLE Express solution was removed, and DRGs were washed gently 3 times with 1 mL prepared culture medium (containing 5% fetal bovine serum). Tissue was triturated by gently pipetting up and down 20-30 times in 1 mL prepared culture medium. After trituration, the DRG neuron suspension was filtered (40-μm strainer) following non-dissociated tissue settlement to the bottom of the microfuge and transferred to another tube. After centrifugation (800 r.p.m for 4 min at room temperature), the cell pellet was resuspended and cultured in a precoated dish.
For sodium indication. ANG-2 AM (Teflabs, Austin, Tex.) was used according to the manufacturer's protocol. Briefly, 1 mM stock solution of ANG-2 AM was diluted to twice the original volume with a solution of 20% Pluronic F-127 (Thermo Fisher Scientific) in DMSO. Then, the ANG-2 AM/Pluronic F-127 solution was dispersed to final concentration at 5 μM ANG-2 AM and 0.1% Pluronic F-127 with serum-free culture medium. After incubation for 1 h at 37° C., the cell loading medium was removed. The cells were washed with serum-free and dye-free medium and prepared for sodium imaging. The sterile imaging buffer contained 5.4 mM KCL, 160 mM NaCL, 20 mM HEPES, 1.3 mM CaCL2, 0.8 mM MgSO4, 0.78 mM NaH2PO4, and 5 mM glucose (pH 7.4) The sodium imaging was monitored and captured using a confocal microscope (Zeiss LSM 780).
In different sets of experiments, the DRG neurons were treated with 20 μM PGE2 (14010, Cayman Chemical, Ann Arbor, Mich.) for 5 min. […]

[2] = tested on: PKA/CREB signaling; assay: Western blot and fluorescent staining of PKA and CREB phosphorylation in primary DRG neurons; assay type: cell-based, mice
Description: DRG neuron culture was processed as described previously. Saijilafu and Zhou, 2012. Briefly, the dishes or coverslips for DRG neuron culture were coated with 50 μL working solution containing 100 μg/mL Poly-D-Lysine and 10 µg/mL Laminin at 37° C. To prepare the neuron culture medium, alpha minimum essential medium (α-MEM) was supplemented with 1× penicillin-streptomycin solution (500 units of penicillin and 500 μg of streptomycin, Gibco Laboratories, Gaithersburg, Md.), 5% fetal bovine serum (Gibco), 1× GlutaMAX-1 supplement (35050-061, Thermo Fisher Scientific), and the antimitotic reagents containing 20 μM 5-fluoro-2-deoxyuridine (F0503, Sigma-Aldrich) and 20 μM uridine (U3003, Sigma-Aldrich). For the serum-free medium, the fetal bovine serum was replaced with the supplement B27. After euthanizing the 6- to 8-week-old mice, the lumbar DRGs were harvested and stored in microfuge tubes with α-MEM medium placed on ice. […]
The primary DRG neurons were treated with 20 μM PGE2(14010, Cayman Chemical, Ann Arbor, Mich.) for 30 min; 10 μM PKA inhibitor (H-89, BML-E1196, Enzo Life Sciences, Farmingdale, N.Y.) for 1 h. […] Specific antibodies were applied for incubation, and the proteins were detected by using an enhanced chemiluminescence kit (Amersham Bioscience, RNP2108). […]

[3] = tested on: patients with Modic changes associated LBP; conditions: cited from earlier work
[4] = tested on: OA joint; conditions: intra-articular injection; cited from earlier work

CCCC(=O)Nc1ncnc2c1ncn2[C@@H]1O[C@@H]2COP(=O)(O)O[C@H]2[C@H]1OC(=O)CCC [cAMP, dibutyryl-cAMP]
sodium influx ([1]; DRG neurons of EP4−/− mice, PGE2 combined with cAMP): rescued sodium influx

O=S(=O)(NCCNC/C=C/c1ccc(Br)cc1)c1cccc2cnccc12 [PKA inhibitor, H-89]
PGE2-induced activation of PKA and CREB ([2]; H-89 10 μM 60 min): abrogated
PGE2-induced sodium influx ([1]; PGE2 20 μM combined with H-89 10 μM or siRNA for Nav 1.8): ablated

CCCCC[C@H](O)/C=C/[C@H]1[C@H](O)CC(=O)[C@@H]1C/C=C\CCCC(=O)O [PGE2, Prostaglandin E2]
activation of PKA and CREB ([2]; PGE2 20 μM 30 min): activates
PGE2-stimulated sodium influx ([1]; DRG neurons of EP4−/− mice): abolished
sodium influx (fluorescent intensity of sodium indicator) ([1]; PGE2 20 μM 5 min, DRG neurons from EP4f/f mice): significantly stimulated the enhancement of the fluorescent intensity

denosumab
analgesic effects [3]: analgesic effects

hyaluronic acid
duration of pain relief [4]: up to 6 months
